Type in all cases: cell-based
The test system of experiment [1] is phosphorylated TANK-binding kinase 1 (pTBK1). In words: UVB-induced pTBK1 in HaCaT cells. Particulars: Homo sapiens, light or radiation study, pTBK1 response curves, 72 hours compound treatment, UVB. The method, then: pTBK1 is an important signaling molecule in regulating inflammatory responses. HaCaT cells were plated in 6-well plates at a density of ˜100 k/well in HaCaT media (DMEM, optimized 1× (Addex Bio)+ 1% pen strep (Gibco)^+ 5% heat inactivated fetal bovine serum (Gibco)). The cells were then cultured at 37° C. overnight. The next day, the cells were treated with the test compounds. Each test compound was diluted and added to media aliquots to provide desired concentrations. To add the test compound+media mixture, an equivalent amount of media from each well was aspirated and then replenished with the media dosed with the test compound. The cells were then cultured for an additional 72 hours with compound treatment prior to UVB exposure.
The media was then aspirated from the wells, with the remaining cells at least 80% confluent in each well. One mL of PBS was then added to each well, and the plate was then placed under a UVB lamp. A UVB sensor was positioned near the plate to register the plate's exposure. The cells were exposed to the UVB light until they reached 0.1 mJ/cm2. Then the plate was covered and transferred to a sterile hood for processing.
The PBS was aspirated out of the wells, and the wells were replenished with 3 mL fresh culture media. The cells were then cultured for an additional 24 hours, and samples were processed 24 hours post-UVB exposure. To process the samples, the media was aspirated, the plate placed on ice, and the cells washed with cold PBS, which was then aspirated off. Another 1 mL of cold PBS was added to each well. The cells were then scraped in the cold PBS solution and transferred to conical tubes on ice. The cells were then spun at ≥1000 RCF at 4° C. for 5 minutes. The cells were then resuspended in 1 mL of cold PBS and transferred to a microcentrifuge tube. The cells were spun at ≥1000 RCF at 4° C. for another 5 minutes, and the PBS was aspirated off. The cell pellet was prepared for lysis.
A RIPA lysis buffer (#BP-115, Boston BioProducts) was added to a Halt protease and […] inhibitor cocktail (#78440, ThermoFisher), and the mixture was cooled on ice. About 30 μL of the lysis buffer mix was added to the cells. The samples were briefly vortexed and then incubated on ice for at least 15 minutes. The cells were then spun≥1000 RCF at 4° C. for 5 minutes and the supernatant was transferred to a clean tube. The protein concentration of the cell lysate was measured using Pierce™ Rapid Gold BCA Protein Assay Kit #AF3225 (ThermoFisher). ELISA analysis was run on select samples using one of the following kits: • a. FastScan™ Phospho-TBK1/NAK (Ser172) ELISA Kit #46948 (Cell Signaling Technologies) • b. FastScan™ Total TBK1/NAK ELISA Kit #15816 (Cell Signaling Technologies) • c. FastScan™ Phospho-STING (Ser366) ELISA Kit #82083 (Cell Signaling Technologies) • d. FastScan™ Phospho-IRF-3 (Ser396) ELISA Kit #50386 (Cell Signaling Technologies) • e. FastScan™ Total IRF-3 ELISA Kit #29771 (Cell Signaling Technologies) • f. Phospho-NAK/TBK1 (S172) ELISA Kit (ab279952) (Abcam) • g. Phospho-IRF3 (S386) ELISA Kit (ab279833) (Abcam) Part II—Results
In the table “A” represents values≤0.50 μM; “B” represents values from >0.50 μM to ≤2.0 μM; “C” represents values from >2.0 μM to ≤5.0 μM; “D” represents values from >5.0 μM to ≤10 μM; and “E” represents values>10 μM.

Experiment [2] in a line: Mitochondria toxicity assay with PC3 cells, in-cell ELISA COX-1. The note with it: 5 days treatment. The gist of the method:
(§1)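 This in-cell ELISA was run on fixed, permeabilized PC3 cells after 5-day exposure to titrated compound, with cytotoxicity measured on a duplicate plate. Results are reported as categories A (<1.0 μM) to E (>100.0 μM).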
(An ELISA detects its analyte on a solid surface through an enzyme-linked reagent.)

In experiment [3] the test system is SDH-A (succinate dehydrogenase-A). In words: Mitochondria toxicity assay with PC3 cells, in-cell ELISA SDH-A. Particulars: 5 days treatment. Summed up:
as §1

A further experiment deals with PC3 cells. In words: Mitochondria toxicity assay with PC3 cells, cytotoxicity (Cell Titer Glo). Particulars: Homo sapiens, PC-3, 120 h, 5 days treatment. The gist of the method: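 Cytotoxicity reported in μM bins, A <1.0 through E >100.0. Measured via Cell Titer Glo luminescence (30 min, room temperature) after 5-day dose-titration treatment of PC3 cells, grown in F-12K/10% FBS, at 37° C, 5% CO2.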
For orientation: ATP-based viability assays read luminescence as a measure of living cells.

The next experiment deals with THP1-Dual KO-TREX1 cells. Briefly: THP1 TREX1 KO inhibition assay (type 1 interferon response). The note with it: Homo sapiens, 144 h, type 1 interferon (QUANTI-LUC), 1 μM 5-aza-2′-deoxycytidine, six days. The gist of the method:
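THP1-Dual KO-TREX1 cells were treated with a dose titration of compound, alone or with 1 μM 5-aza-2′-deoxycytidine, for six days at 37 °C. Type 1 interferon was read as secreted luciferase (QUANTI-LUC) in the supernatant, and viability by CellTiter-Glo luminescence.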

The next experiment has as its system 7S mitochondria DNA. Briefly: Mitochondria DNA assay with PC3 cells. Particulars: Homo sapiens, PC-3, 120 h, 5 days, 7S mitochondria DNA level by qPCR relative to 18S or GAPDH. The method, then:
Exemplary compounds were tested for their effect on levels of 7S mitochondria DNA, and the DNA of housekeeping genes 18S and GAPDH. Reduction of 7S mitochondria DNA indicates off-target inhibition of mitochondrial DNA synthesis, which leads to mitochondrial toxicity. Assay procedures and results are described below.
PC3 cells were purchased from ATCC and cultured in F-12 Kaighn's modified medium (Hyclone), 10% heat-inactivated fetal bovine serum (Gibco), 1% Penicillin-Streptomycin (Invitrogen). PC3 cells were treated with a dose titration of a test compound on 6 well plates for 5 days at 37° C., 5% CO2 in a humidified incubator.
Cells were harvested and mitochondria DNA extraction was performed using DNeasy Blood & Tissue Kit (Qiagen) according to the manufacture's instruction.
Mitochondria 7S and housekeeping genes 18S and GAPDH DNA was quantified by multiplex qPCR with the PowerUp™ SYBR™ Green system (Applied Biosystems). Prepare reaction mix consisting of 5 μl of 2× PowerUp™ SYBR™ Green Master Mix, 1 μl of 5 μM Primers for 7S, 18S, or GAPDH, 4 μl of DNA template from DNA extraction above. The primer sequences are below:
qPCR was performed on QuantStudio™ 7 Flex RealTime qPCR system (Applied Biosystems) as set forth below: • a. 50° C. for 2 minutes, then • b. 95° C. for 2 minutes, then • c. 95° C. for 15 seconds, then • d. 60° C. for 60 seconds, • where then steps (c) and (d) were repeated 60 times.
Threshold was calculated by QuantStudio™ 7 Flex Software (ThermoFisher Scientific) using the default settings. Ct values were used to evaluate the relative mitochondria DNA (mtDNA) level using the following formula: ΔCt=Ct (7S target gene)−Ct (18S) or ΔCt=Ct (7S target gene)−Ct (GAPDH). Relative mtDNA level=2^−Δct. Expression fold over DMSO control=2^−Δct (compound treated group)/2^−Δct (DMSO group)
In the table “A” represents values≤0.1 μM; “B” represents values from >0.1 μM to ≤1.0 μM; “C” represents values from >1.0 μM to ≤10.0 μM; “D” represents values from >10.0 μM to ≤100.0 μM; and “E” represents values>100.0 μM.
Background: Quantitative PCR measures a nucleic acid by following its amplification.

Take `Nc1ccn([C@H]2C[C@H](O)[C@](CO)(C(F)(F)F)O2)c(=O)n1` [Compound 21, 4-amino-1-((2R,4S,5R)-4-hydroxy-5-(hydroxymethyl)-5-(trifluoromethyl)tetrahydrofuran-2-yl)pyrimidin-2(1H)-one]: the IC50 in experiment [1] was above 10 µM; in experiment [2], above 100 µM; in experiment [3], above 100 µM; in the experiment on PC3 cells, above 100 µM.
Consider `CC(C)C(=O)OC[C@@]1(CCl)O[C@@H](n2ccc(N)nc2=O)[C@H](F)[C@@H]1OC(=O)C(C)C` [Compound 24, (2R,3R,4R,5R)-5-(4-amino-2-oxopyrimidin-1(2H)-yl)-2-(chloromethyl)-4-fluoro-2-((isobutyryloxy)methyl) tetrahydrofuran-3-yl isobutyrate], for which the IC50 is above 1 µM in the experiment on THP1-Dual KO-TREX1 cells; above 100 µM in experiment [2]; above 100 µM in experiment [3]; above 100 µM in the experiment with PC3 cells; above 100 µM in the experiment with 7S mitochondria DNA.
Regarding `Nc1ccn([C@@H]2O[C@@](CO)(CCl)[C@@H](O)[C@H]2F)c(=O)n1` [Compound 31, 4-amino-1-((2R,3R,4R,5R)-5-(chloromethyl)-3-fluoro-4-hydroxy-5-(hydroxymethyl)tetrahydrofuran-2-yl)pyrimidin-2(1H)-one], the IC50 with THP1-Dual KO-TREX1 cells was above 1 µM; in experiment [2], 10 to 50 µM; in experiment [3] it was 10 to 50 µM; in the experiment with PC3 cells it was 10 to 50 µM; with 7S mitochondria DNA, 0.1 to 1 µM.
Regarding `Nc1nc(=O)n([C@@H]2O[C@@](CO)(CCl)[C@@H](O)[C@@H]2O)cc1F` [Compound 73, 4-amino-1-((2R,3S,4S,5R)-5-(chloromethyl)-3,4-dihydroxy-5-(hydroxymethyl)tetrahydrofuran-2-yl)-5-fluoropyrimidin-2(1H)-one], the IC50 is above 1 µM in the experiment with THP1-Dual KO-TREX1 cells; above 100 µM in experiment [2]; above 100 µM in experiment [3]; above 100 µM in the experiment on PC3 cells; above 100 µM in the experiment on 7S mitochondria DNA.
`[N-]=[N+]=N[C@]1(CO)O[C@@H](n2cc(F)c(N)nc2=O)[C@@H](F)[C@@H]1O` [Compound 165]: the IC50 was 0.25 to 1 µM with THP1-Dual KO-TREX1 cells, below 1 µM in experiment [2], below 1 µM in experiment [3] and above 100 µM with PC3 cells.
Consider `Nc1ccn([C@@H]2O[C@@](CO)(CBr)[C@@H](O)[C@@H]2F)c(=O)n1` [Compound 172], for which the IC50 was above 1 µM in the experiment with THP1-Dual KO-TREX1 cells, above 100 µM in experiment [2], above 100 µM in experiment [3] and above 100 µM with PC3 cells.
With `[2H]C([2H])(Cl)[C@]1(CO)O[C@@H](n2cc(F)c(N)nc2=O)[C@@H](F)[C@@H]1O` [Compound 175, 4-amino-1-((2R,3S,4R,5R)-5-(chloromethyl-d2)-3-fluoro-4-hydroxy-5-(hydroxymethyl)tetrahydrofuran-2-yl)-5-fluoropyrimidin-2(1H)-one], the IC50 in the experiment on THP1-Dual KO-TREX1 cells is 0.25 to 1 µM; in experiment [2], above 100 µM; in experiment [3], above 100 µM; in the experiment with PC3 cells, above 100 µM.
For `Cc1cn([C@@H]2O[C@@](CO)(CCl)[C@@H](O)[C@@H]2F)c(=O)[nH]c1=O` [Compound 176], the IC50 is above 1 µM with THP1-Dual KO-TREX1 cells, above 100 µM in experiment [2], above 100 µM in experiment [3] and above 100 µM in the experiment with PC3 cells.
Take `Nc1nc(=O)n([C@@H]2OC(CO)(CO)[C@@H](O)[C@@H]2F)cc1F` [Compound 177, 4-amino-5-fluoro-1-((2R,3S,4R)-3-fluoro-4-hydroxy-5,5-bis(hydroxymethyl)tetrahydrofuran-2-yl) pyrimidin-2(1H)-one]: the IC50 was above 1 µM in the experiment on THP1-Dual KO-TREX1 cells, above 100 µM in experiment [2], above 100 µM in experiment [3] and above 100 µM in the experiment on PC3 cells.
On to `Cc1cn([C@@H]2O[C@@](CO)(N=[N+]=[N-])[C@@H](O)[C@@H]2F)c(=O)[nH]c1=O` [Compound 178, 1-((2R,3S,4R,5R)-5-azido-3-fluoro-4-hydroxy-5-(hydroxymethyl)tetrahydrofuran-2-yl)-5-methylpyrimidine-2,4(1H,3H)-dione], for which the IC50 in the experiment on THP1-Dual KO-TREX1 cells is above 1 µM; in experiment [2], 10 to 50 µM; in experiment [3], above 100 µM; in the experiment with PC3 cells, above 100 µM.
For the molecule `O=c1[nH]c(=O)n([C@@H]2O[C@@](CO)(CCO)[C@@H](O)[C@@H]2F)cc1F` [Compound 179, 5-fluoro-1-((2R,3S,4R,5R)-3-fluoro-4-hydroxy-5-(2-hydroxyethyl)-5-(hydroxymethyl)tetrahydrofuran-2-yl) pyrimidine-2,4(1H,3H)-dione], the IC50 in the experiment on THP1-Dual KO-TREX1 cells was above 1 µM; in experiment [2], above 100 µM; in experiment [3] it was above 100 µM; with PC3 cells, above 100 µM.
As for `Cc1cn([C@H]2C[C@H](F)[C@@](C)(CO)O2)c(=O)[nH]c1=O` [Compound 180, 1-((2R,4S,5R)-4-fluoro-5-(hydroxymethyl)-5-methyltetrahydrofuran-2-yl)-5-methylpyrimidine-2,4(1H,3H)-dione], the IC50 with THP1-Dual KO-TREX1 cells was above 1 µM; in experiment [2] it was above 100 µM; in experiment [3], above 100 µM; with PC3 cells, above 100 µM.

A word on the IC50: it is the concentration needed to halve the response being measured.
